For three molecules, Km/kcat, Km and kcat results are on record in patent EP3363912B1, “SELF-CALIBRATED ASSAY FOR DETERMINING PROTEOLYTIC ENZYME GENERATION, DEDICATED MEANS AND USES THEREOF” (Synapse B.V., priority 2017, dated 2018).

Type in all cases: biochemical
The target in data set [1] is T1, staphylocoagulase-thrombin (Homo sapiens, UniProt P00734).
T1 construct: Antithrombin-resistant thrombin activity can also be obtained reacting prothrombin with the protein staphylocoagulase; made in house
The data set can be described thus: Conversion of a substrate concentration series by staphylocoagulase-thrombin in 1:2 diluted normal plasma on filter paper. The text has this:
Surface fluorescence in plasma and in whole blood has been essentially measured in the same way as published by Ninnivagi and Apitz for whole blood (Ninivaggi M, Apitz-Castro R, Dargaud Y, de Laat B, Hemker HC, Lindhout T. Whole blood thrombin generation monitored with a calibrated automated thrombogram-based assay. Clin.Chem. 2012,58:1252-1259) or in WO2006/117246. Paper discs of 5.5 mm diameter and 180 µm thickness (Whatman 589/1, Whatman GmbH, Dassel, Germany) were placed in flat bottom wells of a 96-wells polystyrene microplate (Thermo Electron Corporation, Milford, MA, USA).
• A. Preparation of paper matrices and placement into a flat-bottom 96 wells plate • B. Addition of the fluorogenic substrate solution to the plasma or to whole blood • C. Pre-heating of the reagents and whole blood for 2 min at 37°C • D. Mixing of the whole blood and the trigger mix or calibrator 1:1 • E. Pipetting 5 µL reaction mix onto the paper matrix • F. Pipetting 40 µL of mineral oil onto the paper matrix • G. Immediate measurement of fluorescence in time (exc 485 nm / em 538 nm)
In 1:2 diluted normal plasma adsorbed on filter paper a concentration series of mPEG-Gly-Pro-Arg-RhoAc (75, 150, 225, 300, 450 and 600 µM) was converted by 100 nM of staphylocoagulase-thrombin and the resulting fluorescence recorded as further described under materials and methods. […]

The next data set concerns the target T2, thrombin (Homo sapiens, UniProt P00734).
T2 construct: from tissue; host or cells: plasma
As to the kind of experiment: Standard thrombin generation experiment in plasma, ratio method (kinetic constants of substrate conversion). The following applies: substrate at 108 and 416 µM with 1 µM AMC added, 5 pM tissue factor, 37°C. The procedure: Plasma in solution: The TG experiments in the examples are variations on the standard experiment in which thrombin generation in plasma is measured in a 96-wells polystyrene microplate (Thermo Electron Corporation, Milford, MA, USA). All wells contained 80 µl plasma and 20 µl of a solution containing 0.5 - 5 pM tissue factor (TF) and 4 µM phospholipids (PL). To calibrator wells, 20 µl of calibrator was added instead so as to obtain the equivalent of 100 nM thrombin activity. Thrombin generation (TG) was initiated by the addition of 20 µl of substrate (standard: Z-Gly-Gly-Arg-AMC, 417 µM) and CaCl2 (16.6 mM).
• A. Addition of 80 µl plasma to each well • B. Addition of 20 µl TF/phospholipids mix or 20 µl calibrator to each well • C. Pre-heating of the plate for 10 min at 37°C • D. Addition of 20 µl FluCa kept at 37°C prior to the addition of the reaction mixture. • E. Immediate kinetic measurement of fluorescence in time (exc 390 nm / em 460 nm)
A standard thrombin generation experiment with 5 pM tissue factor was carried out, using Z-Gly-Gly-Arg-AMC as a substrate at the concentrations 108- and 416 bµM with 1µM of AMC added. Fom the fluorescence data the normalized ratio was calculated as Rt=(Fexp.t-F0)/(Fmax-F0) (dashed lines).

For data set [2], the target named is T3, plasmin-α2-macroglobulin complex (Homo sapiens, UniProt P00747).
T3 construct: thrombin and plasmin can be reacted with the plasma-derived protein α2-macroglobulin; made in house
As to the kind of experiment: Plasmin generation experiment on paper, calibrator curve with plasmin-α2-macroglobulin complex. The following applies: substrate 300 µM with 8 µM AMC added, constant E 100 nM. The procedure:
Stock solutions: SC-FII, prepared in house 1µM; Plasmin-α2macroglobulin complex, prepared in house 1 µM; rec Human recombinant tissue factor (TF) (Innovin; Siemens) 6µM. Phospholipids (PS:PC:PE, 2:6:2) prepared in house 1 mM, Human recombinant tissue plasminogen activator (tPA), (Alteplase Boehringer Ingelheim) 36 klU, Final concentrations used: SC-FII, 100 nM, Plasmin-α2macroglobulin 100 nM: tPA 300 IU. Substrate 300 µM,
To 40 µL of plasma was added 20 µL of the substrate solution (1,35 mM in BSA 60 buffer) so as to obtain a concentration of 450 µM.
To 40 µL of this mixture were added 20 µL of the activation mixture containing the indicated concentration of Ca^++, TF, PI, tPA in BSA 5 buffer. 5 µL of this of this solution was transferred to three 6 mm diameter paper rounds at the (flat) bottom of a 96-well plate. […] The plate was read in a Fluoroscan Ascent fluorometer at 37°C. Samples were measured every 10s at 390-460 nm for 50 minutes.
A plasmin generation experiment was carried out as described in the methods section with Boc-Glu-Lys-Lys-AMC (300 µM) as a substrate to which 8 µM AMC was added. […] We simultaneously recorded a fluorescence curve from plasmin-α2-macroglobulin complex, equivalent to 100 nM plasmin. From this curve, run to completion we found Fmax to be 1778 AU, whereas F0 as measured during the lag-times, was 49,2 AUs.

Where a SMILES comes first, the peptide text is derived from it. The star is where a group is joined. AMC = Cc1cc(=O)oc2cc(N*)ccc12; Boc = CC(C)(C)OC(=O)*

T3 sequence (P00747 581-810 limits assumed): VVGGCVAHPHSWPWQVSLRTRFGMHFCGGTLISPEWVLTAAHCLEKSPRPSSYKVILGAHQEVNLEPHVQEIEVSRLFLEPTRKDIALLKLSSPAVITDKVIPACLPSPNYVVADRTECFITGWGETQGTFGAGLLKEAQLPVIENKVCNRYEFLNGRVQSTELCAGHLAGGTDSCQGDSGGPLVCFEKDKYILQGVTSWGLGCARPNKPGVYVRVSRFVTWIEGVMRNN
T3 sequence (P00747 97-580 limits assumed): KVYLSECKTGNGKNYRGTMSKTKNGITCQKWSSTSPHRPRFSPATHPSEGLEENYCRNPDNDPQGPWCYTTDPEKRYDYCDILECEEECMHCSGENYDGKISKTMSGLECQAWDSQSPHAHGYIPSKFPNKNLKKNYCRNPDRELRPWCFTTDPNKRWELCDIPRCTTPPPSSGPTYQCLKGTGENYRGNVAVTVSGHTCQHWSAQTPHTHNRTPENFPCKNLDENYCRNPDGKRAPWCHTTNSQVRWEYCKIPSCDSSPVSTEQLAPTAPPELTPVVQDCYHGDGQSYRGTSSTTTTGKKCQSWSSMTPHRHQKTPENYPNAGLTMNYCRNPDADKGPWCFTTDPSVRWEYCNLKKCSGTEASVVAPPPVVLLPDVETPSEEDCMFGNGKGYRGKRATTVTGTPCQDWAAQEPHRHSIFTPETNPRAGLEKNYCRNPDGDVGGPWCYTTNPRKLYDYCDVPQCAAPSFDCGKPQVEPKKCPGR
T3 sequence (P01023 24-1474 partner): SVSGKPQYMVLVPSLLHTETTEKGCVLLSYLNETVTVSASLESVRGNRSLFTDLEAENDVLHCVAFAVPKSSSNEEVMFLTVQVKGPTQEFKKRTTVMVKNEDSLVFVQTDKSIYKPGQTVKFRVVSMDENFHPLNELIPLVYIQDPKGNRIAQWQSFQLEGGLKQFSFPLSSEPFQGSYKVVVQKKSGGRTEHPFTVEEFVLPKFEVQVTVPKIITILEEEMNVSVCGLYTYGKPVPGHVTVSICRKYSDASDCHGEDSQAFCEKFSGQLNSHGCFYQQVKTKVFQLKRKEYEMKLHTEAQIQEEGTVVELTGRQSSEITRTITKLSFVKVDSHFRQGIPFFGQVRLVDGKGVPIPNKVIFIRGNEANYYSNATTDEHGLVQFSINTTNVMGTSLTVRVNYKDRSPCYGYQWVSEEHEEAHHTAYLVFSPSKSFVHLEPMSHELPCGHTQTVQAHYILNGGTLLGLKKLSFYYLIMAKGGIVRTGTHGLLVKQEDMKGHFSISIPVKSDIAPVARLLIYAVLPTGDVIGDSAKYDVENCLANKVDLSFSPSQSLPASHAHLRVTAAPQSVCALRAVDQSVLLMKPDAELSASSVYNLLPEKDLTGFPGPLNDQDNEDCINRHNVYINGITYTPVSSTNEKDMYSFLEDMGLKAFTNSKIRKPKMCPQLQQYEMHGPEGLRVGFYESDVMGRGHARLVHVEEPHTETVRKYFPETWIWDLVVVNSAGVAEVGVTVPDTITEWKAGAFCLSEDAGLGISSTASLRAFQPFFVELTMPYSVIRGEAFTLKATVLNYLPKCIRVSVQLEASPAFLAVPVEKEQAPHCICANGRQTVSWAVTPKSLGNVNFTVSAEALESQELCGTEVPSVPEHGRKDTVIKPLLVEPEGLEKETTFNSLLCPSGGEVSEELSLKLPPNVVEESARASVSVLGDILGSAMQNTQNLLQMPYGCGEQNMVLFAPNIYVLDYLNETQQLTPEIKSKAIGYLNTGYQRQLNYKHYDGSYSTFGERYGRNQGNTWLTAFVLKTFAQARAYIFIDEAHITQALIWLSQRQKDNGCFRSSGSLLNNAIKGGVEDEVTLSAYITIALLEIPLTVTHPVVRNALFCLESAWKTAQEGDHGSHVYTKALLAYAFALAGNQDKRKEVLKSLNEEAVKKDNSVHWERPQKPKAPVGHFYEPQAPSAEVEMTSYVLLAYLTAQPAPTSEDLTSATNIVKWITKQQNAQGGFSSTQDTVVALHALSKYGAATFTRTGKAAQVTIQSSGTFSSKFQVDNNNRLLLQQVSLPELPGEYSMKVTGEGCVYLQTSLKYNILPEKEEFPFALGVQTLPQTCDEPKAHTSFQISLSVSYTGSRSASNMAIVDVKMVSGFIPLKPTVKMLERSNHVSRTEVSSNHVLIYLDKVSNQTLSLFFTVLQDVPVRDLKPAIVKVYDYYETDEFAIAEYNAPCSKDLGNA

For orientation: Km means the substrate concentration at which the rate is half of its maximum. For the molecule mPEG-Gly-Pro-Arg-RhoAc, the Km/kcat in data set [1] (enzyme concentration 100 nM, any substrate concentration ≤ 600 µM) is 11,36 µM.min. In data set [1] (substrate 75-600 µM, 100 nM staphylocoagulase-thrombin, inferred from reaction velocity proportional to substrate concentration), the Michaelis constant (Km) is greater than 600 µM.
The term kcat denotes the maximal rate divided by the concentration of active sites. As for `Cc1cc(=O)oc2cc(NC(=O)C(CCCNC(=N)N)NC(=O)CNC(=O)CNC(=O)OCc3ccccc3)ccc12` (stereo not drawn) [Z-Gly-Gly-Arg-AMC], at thrombin, the Km amounted to 900 µM and the kcat stood at 1.9 s⁻¹.
For `Cc1cc(=O)oc2cc(NC(=O)[C@H](CCCCN)NC(=O)[C@H](CCCCN)NC(=O)[C@H](CCC(=O)O)NC(=O)OC(C)(C)C)ccc12` [Boc-Glu-Lys-Lys-AMC, ButylOxyCarbonyl-Glu-Lys-Lys-AMC] (Boc-Glu-Lys-Lys-{AMC}), the Km/kcat in data set [2] is 8660 nM·min.
